From patent publication US11008313B2, “Substituted 1-methyl-1,2,3,4-tetrahydroisoquinoline molecules as PCSK9 allosteric binders” (Merck Sharp & Dohme Corp., priority 2016, dated 2021)

Key:
[1] = molecular target: T1, PCSK9 (Homo sapiens, UniProt Q8NBP7); test: Differential scanning calorimetry (DSC) assay, direct binding / thermal stabilization of PCSK9; settings: Tm(with compound)−Tm(no compound); 2 μM PCSK9, 300 μM test compound
Protocol: Differential scanning calorimetry (DSC) was used as a biophysical method to confirm direct binding to PCSK9. A solution containing 2 μM PCSK9 with or without 300 μM test compound in 25 mM HEPES (pH 7.5)/150 mM NaCl/1 mM CaCl2/3.75% DMSO was transferred to the sample cell of the DSC instrument, while buffer alone was placed in the reference cell. Both cells were heated at a constant rate (200° C./hr) from 20-80° C. while recording the excess heat capacity of the sample cell relative to the reference cell. Each thermogram was analyzed to provide the melting temperature (Tm) of the protein.
The higher the temperature shift generally, the higher the affinity.

[2] = molecular target: T1, PCSK9; test: Fluorescence polarization competition binding assay (probe: compound of Example 57); settings: 2 μM PCSK9, 50 nM compound of Example 57 as probe, overnight incubation; read-out: FP IC
Protocol: Relative compound affinities were determined using a competition binding assay with a fluorescence polarization format. Solution (49 μL) containing 2 μM PCSK9 and 50 nM compound of Example 57 in 20 mM HEPES (pH 7.5)/150 mM NaCl/1 mM CaCl2/0.005% P-20 was dispensed to wells of a 384-well black non-binding microplate before the addition of 1 μL of test compound or DMSO. After mixing, the plate was centrifuged and sealed for overnight incubation in the dark. The anisotropy signal was read using a fluorescence polarization protocol on a Perkin-Elmer Envision plate reader. The % inhibition was determined relative to the window defined by the DMSO control wells and wells containing 50 nM probe in the absence of PCSK9.

T1 sequence (Q8NBP7 153-692): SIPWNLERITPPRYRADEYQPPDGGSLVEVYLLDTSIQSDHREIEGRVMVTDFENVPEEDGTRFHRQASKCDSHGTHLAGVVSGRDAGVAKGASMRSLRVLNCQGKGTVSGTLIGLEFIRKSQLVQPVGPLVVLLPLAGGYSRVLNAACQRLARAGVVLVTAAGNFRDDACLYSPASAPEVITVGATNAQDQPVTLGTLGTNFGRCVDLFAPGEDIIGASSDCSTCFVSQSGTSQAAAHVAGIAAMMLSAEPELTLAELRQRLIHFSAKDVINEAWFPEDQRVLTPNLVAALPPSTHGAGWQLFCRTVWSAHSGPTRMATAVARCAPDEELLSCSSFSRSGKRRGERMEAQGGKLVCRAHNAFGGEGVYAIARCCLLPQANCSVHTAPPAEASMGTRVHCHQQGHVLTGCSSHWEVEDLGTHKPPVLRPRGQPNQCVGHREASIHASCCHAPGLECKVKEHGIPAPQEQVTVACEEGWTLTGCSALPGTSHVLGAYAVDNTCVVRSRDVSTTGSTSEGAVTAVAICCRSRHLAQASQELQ

| ΔTm at 300 µM [1] [°C] | IC50 [2] [nM] | DSC ΔTm [1] [°C] | SMILES |
| --- | --- | --- | --- |
| 6.02 | 664 | – | COC(=O)c1cc(-c2cc3c(cc2OC)CCN[C@]3(C)CC(=O)Nc2nccs2)ccc1F [Example 109, methyl (R)-2-fluoro-5-(6-methoxy-1-methyl-1-(2-oxo-2-(thiazol-2-ylamino)ethyl)-1,2,3,4-tetrahydroisoquinolin-7-yl)benzoate] |
| – | 604 | 6.67 | C[C@]1(CC(=O)Nc2nccs2)NCCc2cc(OCC3CCCCO3)c(Oc3ccc(C(=O)Nc4n[nH]c5ncccc45)c(F)c3)cc21 (stereo partly drawn) [Example 78, 2-fluoro-4-(((1R)-1-methyl-1-(2-oxo-2-(thiazol-2-ylamino)ethyl)-6-((tetrahydro-2H-pyran-2-yl)methoxy)-1,2,3,4-tetrahydroisoquinolin-7-yl)oxy)-N-(1H-pyrazolo[3,4-b]pyridin-3-yl)benzamide] |
| 6.03 | 529 | – | C[C@]1(CC(=O)Nc2nccs2)NCCc2cc(OCC3CCCCO3)c(Oc3ccc(C(=O)O)c(F)c3)cc21 (stereo partly drawn) [Example 62, 2-fluoro-4-(((1R)-1-methyl-1-(2-oxo-2-(thiazol-2-ylamino)ethyl)-6-((tetrahydro-2H-pyran-2-yl)methoxy)-1,2,3,4-tetrahydroisoquinolin-7-yl)oxy)benzoic acid] |
| 5.29 | 681 | – | COc1cc2c(cc1Oc1ccc(-c3ccc(C(=O)O)cc3)nc1)[C@@](C)(CC(=O)Nc1nccs1)NCC2 [Example 35, (R)-4-(5-((6-methoxy-1-methyl-1-(2-oxo-2-(thiazol-2-ylamino)ethyl)-1,2,3,4-tetrahydroisoquinolin-7-yl)oxy)pyridin-2-yl)benzoic acid] |
| 5.97 | 389 | – | C[C@]1(CC(=O)Nc2nccs2)NCCc2cc(OCCn3cc(CN4CCNC4=O)nn3)c(Oc3ccc(C(=O)O)c(F)c3)cc21 [Example 42, (R)-2-fluoro-4-((1-methyl-1-(2-oxo-2-(thiazol-2-ylamino)ethyl)-6-(2-(4-((2-oxoimidazolidin-1-yl)methyl)-1H-1,2,3-triazol-1-yl)ethoxy)-1,2,3,4-tetrahydroisoquinolin-7-yl)oxy)benzoic acid] |
| 5.59 | 652 | – | COc1cc2c(cc1Oc1ccnc(F)c1)[C@@](C)(CC(=O)Nc1nccs1)NCC2 [Example 7, (R)-2-(7-((2-fluoropyridin-4-yl)oxy)-6-methoxy-1-methyl-1,2,3,4-tetrahydroisoquinolin-1-yl)-N-(thiazol-2-yl)acetamide] |
| 5.55 | 902 | – | COc1ccc(Oc2cc3c(cc2OC)CCN[C@]3(C)CC(=O)Nc2nccs2)cc1F [Example 10, (R)-2-(7-(3-fluoro-4-methoxyphenoxy)-6-methoxy-1-methyl-1,2,3,4-tetrahydroisoquinolin-1-yl)-N-(thiazol-2-yl)acetamide] |
| 4.92 | 1250 | – | COC(=O)c1ccc2cc1OCCCCCc1csc(n1)NC(=O)C[C@@]1(C)NCCc3cc(OC)c(cc31)O2 [Example 3, methyl (R,Z)-36-methoxy-31-methyl-5-oxo-31,32,33,34-tetrahydro-2,13-dioxa-6-aza-7(2,4)-thiazola-3(7,1)-isoquinolina-1(1,3)-benzenacyclotridecaphane-14-carboxylate] |
| 5.75 | 386 | – | COc1cc2c(cc1Oc1ccc(-c3ccc(C(=O)O)cc3)cc1)[C@@](C)(CC(=O)Nc1nccs1)NCC2 [Example 26, (R)-4′-((6-methoxy-1-methyl-1-(2-oxo-2-(thiazol-2-ylamino)ethyl)-1,2,3,4-tetrahydroisoquinolin-7-yl)oxy)-[1,1′-biphenyl]-4-carboxylic acid] |
| 7.83 | 294 | – | C[C@]1(CC(=O)Nc2nccs2)NCCc2cc(OCC(=O)O)c(Oc3ccc(C(=O)O)c(F)c3)cc21 [Example 64, (R)-4-((6-(carboxymethoxy)-1-methyl-1-(2-oxo-2-(thiazol-2-ylamino)ethyl)-1,2,3,4-tetrahydroisoquinolin-7-yl)oxy)-2-fluorobenzoic acid] |
| 7.92 | 535 | – | CC(C)(C)c1cc(NC(=O)c2ccc(Oc3cc4c(cc3OCC3CCCCO3)CCN[C@]4(C)CC(=O)Nc3nccs3)cc2F)[nH]n1 (stereo partly drawn) [Example 76, N-(3-(tert-butyl)-1H-pyrazol-5-yl)-2-fluoro-4-(((1R)-1-methyl-1-(2-oxo-2-(thiazol-2-ylamino)ethyl)-6-((tetrahydro-2H-pyran-2-yl)methoxy)-1,2,3,4-tetrahydroisoquinolin-7-yl)oxy)benzamide] |
| 8.59 | 109 | – | COc1cccc(NC(=O)C[C@@]2(C)NCCc3cc(OCC4CCCCO4)c(Oc4ccc(-c5ccc(C(=O)O)cc5)c(F)c4)cc32)n1 (stereo partly drawn) [Example 90, 2′-fluoro-4′-(((1R)-1-(2-((6-methoxypyridin-2-yl)amino)-2-oxoethyl)-1-methyl-6-((tetrahydro-2H-pyran-2-yl)methoxy)-1,2,3,4-tetrahydroisoquinolin-7-yl)oxy)-[1,1′-biphenyl]-4-carboxylic acid] |
| 7.11 | 386 | – | COc1cc2c(cc1Oc1ccc(-c3ccc(C(=O)O)c(F)c3)c(F)c1)[C@@](C)(CC(=O)Nc1nccs1)NCC2 [Example 27, (R)-2′,3-difluoro-4′-((6-methoxy-1-methyl-1-(2-oxo-2-(thiazol-2-ylamino)ethyl)-1,2,3,4-tetrahydroisoquinolin-7-yl)oxy)-[1,1′-biphenyl]-4-carboxylic acid] |
| 6.87 | 705 | – | Cc1ccc(C2C(C(=O)O)c3ccccc3C(=O)N2c2cccc(-c3cn(CCOc4cc5c(cc4Oc4ccc(C(=O)O)c(F)c4)[C@@](C)(CC(=O)Nc4nccs4)NCC5)nn3)c2)cc1 (stereo partly drawn) [Example 51, 2-(3-(1-(2-(((R)-7-(4-carboxy-3-fluorophenoxy)-1-methyl-1-(2-oxo-2-(thiazol-2-ylamino)ethyl)-1,2,3,4-tetrahydroisoquinolin-6-yl)oxy)ethyl)-1H-1,2,3-triazol-4-yl)phenyl)-1-oxo-3-(p-tolyl)-1,2,3,4-tetrahydroisoquinoline-4-carboxylic acid] |
| 7.19 | 860 | – | C[C@]1(CC(=O)Nc2cccnn2)NCCc2cc(OCC3CCCCO3)c(Oc3ccc(-c4ccc(C(=O)O)cc4)c(F)c3)cc21 (stereo partly drawn) [Example 91, 2′-fluoro-4′-(((1R)-1-methyl-1-(2-oxo-2-(pyridazin-3-ylamino)ethyl)-6-((tetrahydro-2H-pyran-2-yl)methoxy)-1,2,3,4-tetrahydroisoquinolin-7-yl)oxy)-[1,1′-biphenyl]-4-carboxylic acid] |
| 6.74 | 683 | – | C[C@]1(CC(=O)Nc2nccs2)NCCc2cc(OCCn3cc(CNS(C)(=O)=O)nn3)c(Oc3ccc(C(=O)O)c(F)c3)cc21 [Example 50, (R)-2-fluoro-4-((1-methyl-6-(2-(4-(methylsulfonamidomethyl)-1H-1,2,3-triazol-1-yl)ethoxy)-1-(2-oxo-2-(thiazol-2-ylamino)ethyl)-1,2,3,4-tetrahydroisoquinolin-7-yl)oxy)benzoic acid] |
| 5.2 | 852 | – | C[C@]1(CC(=O)Nc2nccs2)NCCc2cc(OCc3ccccn3)c(Oc3cccc(F)c3)cc21 [Example 83, (R)-2-(7-(3-fluorophenoxy)-1-methyl-6-(pyridin-2-ylmethoxy)-1,2,3,4-tetrahydroisoquinolin-1-yl)-N-(thiazol-2-yl)acetamide] |
| 7.65 | 541 | – | COCCOc1cc2c(cc1Oc1ccc(C(=O)O)cc1)[C@@](C)(CC(=O)Nc1nccs1)NCC2 [Example 69, (R)-4-((6-(2-methoxyethoxy)-1-methyl-1-(2-oxo-2-(thiazol-2-ylamino)ethyl)-1,2,3,4-tetrahydroisoquinolin-7-yl)oxy)benzoic acid] |
| 5.98 | 2.76 | – | COC(=O)c1ccc(-c2ccc(Oc3cc4c(cc3OCC3CCCCO3)CCN[C@]4(C)CC(=O)Nc3cccc(OC)c3)cc2F)cc1 (stereo partly drawn) [Example 89, methyl 2′-fluoro-4′-(((1R)-1-(2-((3-methoxyphenyl)amino)-2-oxoethyl)-1-methyl-6-((tetrahydro-2H-pyran-2-yl)methoxy)-1,2,3,4-tetrahydroisoquinolin-7-yl)oxy)-[1,1′-biphenyl]-4-carboxylate] |
| 6.29 | 682 | – | C[C@]1(CC(=O)Nc2nccs2)NCCc2cc(OCCn3cc(-c4cnccn4)nn3)c(Oc3ccc(C(=O)O)c(F)c3)cc21 [Example 49, (R)-2-fluoro-4-((1-methyl-1-(2-oxo-2-(thiazol-2-ylamino)ethyl)-6-(2-(4-(pyrazin-2-yl)-1H-1,2,3-triazol-1-yl)ethoxy)-1,2,3,4-tetrahydroisoquinolin-7-yl)oxy)benzoic acid] |
| 7.31 | 299 | – | C[C@]1(CC(=O)Nc2nccs2)NCCc2cc(OCc3ccccn3)c(Oc3ccc(C(=O)O)c(F)c3)cc21 [Example 65, (R)-2-fluoro-4-((1-methyl-1-(2-oxo-2-(thiazol-2-ylamino)ethyl)-6-(pyridin-2-ylmethoxy)-1,2,3,4-tetrahydroisoquinolin-7-yl)oxy)benzoic acid] |
